Values joined by “and” are separate entries in the source; they are usually repeats but may differ in a detail not shown here. Identical values can stand only once. Like-named read-outs stand apart in the source and are kept apart here.
What was measured:
DNMT1 = DNMT1 (Homo sapiens, UniProt P26358); assay: DNMT1 biochemical activity, breaklight assay and/or SPA assay
[1] = test system: erythroid progenitor cells (EPCs); assay: Fetal hemoglobin (HbF) ELISA in day 7 erythroid progenitor cells; assay type: cell-based, human; details: Homo sapiens, Erythroid progenitor cell, HbF ELISA, day 7 EPCs, 5 days; read-out: EPC ELISA (pEC50 category) (converted);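 further: for fetal hemoglobin induction normalized to vehicle-treated cells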
In short: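 CD34+-derived EPCs, 1,000 cells/well, rhEPO 3 U/mL; Compound A 22-pt series, […]; 5 d, 37° C, 5% CO2. Freeze-thaw lysis, anti-HbF capture + HRP anti-HbF, TMB, OD450. Normalized to DMSO wells.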

[2] = binned activity in either the breaklight or the SPA assay
[3] = breaklight assay and/or SPA assay, repeated experimental runs, read-out: average pIC50 against DNMT1 (converted)
[4] = binned activity in either the breaklight or the SPA assay, read-out: DNMT1 BioChemical (pIC50 category) (converted)

Chain of DNMT1 (P26358 whole entry, looked up): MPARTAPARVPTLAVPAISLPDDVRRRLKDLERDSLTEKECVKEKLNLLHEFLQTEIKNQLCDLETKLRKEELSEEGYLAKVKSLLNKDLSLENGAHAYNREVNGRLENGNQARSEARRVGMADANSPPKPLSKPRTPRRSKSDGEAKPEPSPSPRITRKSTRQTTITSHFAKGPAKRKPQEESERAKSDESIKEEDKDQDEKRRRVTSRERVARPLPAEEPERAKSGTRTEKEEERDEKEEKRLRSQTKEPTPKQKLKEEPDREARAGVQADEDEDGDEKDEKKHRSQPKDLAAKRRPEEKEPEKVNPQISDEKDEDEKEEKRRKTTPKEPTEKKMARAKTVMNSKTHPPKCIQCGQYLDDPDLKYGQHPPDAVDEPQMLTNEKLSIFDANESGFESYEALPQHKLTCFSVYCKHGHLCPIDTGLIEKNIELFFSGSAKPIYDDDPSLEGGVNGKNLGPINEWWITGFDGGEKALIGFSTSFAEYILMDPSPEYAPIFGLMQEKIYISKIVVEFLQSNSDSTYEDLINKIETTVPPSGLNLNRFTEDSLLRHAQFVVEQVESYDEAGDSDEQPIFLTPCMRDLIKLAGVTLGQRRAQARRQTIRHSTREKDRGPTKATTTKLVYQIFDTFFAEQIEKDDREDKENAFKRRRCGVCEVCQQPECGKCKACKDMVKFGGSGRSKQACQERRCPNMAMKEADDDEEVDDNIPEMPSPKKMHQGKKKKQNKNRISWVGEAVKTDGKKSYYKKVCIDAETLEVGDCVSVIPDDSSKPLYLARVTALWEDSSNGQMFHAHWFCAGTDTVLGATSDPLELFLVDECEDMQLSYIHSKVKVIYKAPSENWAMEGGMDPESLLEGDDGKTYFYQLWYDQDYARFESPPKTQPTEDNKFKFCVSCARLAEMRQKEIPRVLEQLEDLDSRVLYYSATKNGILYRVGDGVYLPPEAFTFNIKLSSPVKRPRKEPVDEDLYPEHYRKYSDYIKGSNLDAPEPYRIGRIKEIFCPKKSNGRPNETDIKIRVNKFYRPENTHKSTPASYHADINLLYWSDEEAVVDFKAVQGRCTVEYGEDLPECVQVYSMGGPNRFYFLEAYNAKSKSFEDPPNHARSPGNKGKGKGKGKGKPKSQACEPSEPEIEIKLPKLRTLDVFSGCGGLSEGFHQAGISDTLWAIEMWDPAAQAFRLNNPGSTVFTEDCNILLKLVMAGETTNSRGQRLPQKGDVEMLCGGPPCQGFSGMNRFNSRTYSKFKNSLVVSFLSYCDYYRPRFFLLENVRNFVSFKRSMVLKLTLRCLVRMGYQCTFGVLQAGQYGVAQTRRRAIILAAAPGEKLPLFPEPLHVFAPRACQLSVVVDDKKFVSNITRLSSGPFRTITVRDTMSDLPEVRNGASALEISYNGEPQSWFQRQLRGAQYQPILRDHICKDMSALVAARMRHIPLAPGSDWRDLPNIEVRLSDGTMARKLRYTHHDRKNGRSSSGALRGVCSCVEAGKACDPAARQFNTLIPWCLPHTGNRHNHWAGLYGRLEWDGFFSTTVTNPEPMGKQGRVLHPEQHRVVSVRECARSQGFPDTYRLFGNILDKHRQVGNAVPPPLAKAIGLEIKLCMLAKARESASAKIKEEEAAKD

Row | DNMT1 BioChemical (pIC50 category) (DNMT1; [2]) | EC50 [1] | average pIC50 against DNMT1 (DNMT1; breaklight assay and/or SPA assay, repeated experimental runs) | IC50 (DNMT1; [3]) | IC50 (DNMT1; [4]) | SMILES
1 | D (Category D: ≥6.5) | < 316 nM | – | – | – | CCc1c(C#N)c(SCc2ccc(N(C)S(=O)(=O)CF)cc2)nc(N2CCCN(C)CC2)c1C#N [Example 595, N-(4-(((3,5-dicyano-4-ethyl-6-(4-methyl-1,4-diazepan-1-yl)pyridin-2-yl)thio)methyl)phenyl)-1-fluoro-N-methylmethanesulfonamide]
2 | D (Category D: ≥6.5) | > 31600 nM | – | – | – | CCc1c(C#N)c(SCc2ccc(N3CCCS3(=O)=O)cc2)nc(N2CCC(N)CC2)c1C#N [Example 600, 2-(4-aminopiperidin-1-yl)-6-((4-(1,1-dioxidoisothiazolidin-2-yl)benzyl)thio)-4-ethylpyridine-3,5-dicarbonitrile]
3 | D (Category D: ≥6.5) | > 31600 nM | – | – | – | CCc1c(C#N)c(SCc2ccc(N3CCCCS3(=O)=O)cc2)nc(N2CCC(N)CC2)c1C#N [Example 601, 2-(4-aminopiperidin-1-yl)-6-((4-(1,1-dioxido-1,2-thiazinan-2-yl)benzyl)thio)-4-ethylpyridine-3,5-dicarbonitrile]
4 | – | < 316 nM | – | 316 to 1000 nM and 501 nM | 316 to 1000 nM | CCc1c(C#N)c(SCc2ccc(N(C)S(=O)(=O)C(F)F)cc2)nc(N2CCCN(C)CC2)c1C#N [Example 602, N-(4-(((3,5-dicyano-4-ethyl-6-(4-methyl-1,4-diazepan-1-yl)pyridin-2-yl)thio)methyl)phenyl)-1,1-difluoro-N-methylmethanesulfonamide]
5 | D (Category D: ≥6.5) | > 31600 nM | – | – | – | CCc1c(C#N)c(SCc2ccc(N3CCCS3(=O)=O)cc2)nc(N2CCC(NCC(C)(C)C)CC2)c1C#N [Example 603, 2-((4-(1,1-dioxidoisothiazolidin-2-yl)benzyl)thio)-4-ethyl-6-(4-(neopentylamino)piperidin-1-yl)pyridine-3,5-dicarbonitrile]
6 | D (Category D: ≥6.5) | > 31600 nM | – | – | – | CCc1c(C#N)c(SCc2ccc(N3CCCCS3(=O)=O)cc2)nc(N2CCC(NCC(C)(C)C)CC2)c1C#N [Example 604, 2-((4-(1,1-dioxido-1,2-thiazinan-2-yl)benzyl)thio)-4-ethyl-6-(4-(neopentylamino)piperidin-1-yl)pyridine-3,5-dicarbonitrile]

More lines, now with the values behind:

Row | SMILES | DNMT1 BioChemical (pIC50 category) (DNMT1; [2]) | EC50 [1] | average pIC50 against DNMT1 (DNMT1; breaklight assay and/or SPA assay, repeated experimental runs) | IC50 (DNMT1; [3]) | IC50 (DNMT1; [4])
7 | CCc1c(C#N)c(SC(C(N)=O)c2ccccc2)nc(N2CCC[C@@H](CNC(=O)C(C)(C)N)C2)c1C#N (stereo partly drawn) [Example 588, 2-amino-N-(((3S)-1-(6-((2-amino-2-oxo-1-phenylethyl)thio)-3,5-dicyano-4-ethylpyridin-2-yl)piperidin-3-yl)methyl)-2-methylpropanamide] | D (Category D: ≥6.5) | < 316 nM | – | – | –
8 | CCc1c(C#N)c(SC(C(N)=O)c2ccccc2)nc(N2CCC[C@@H](CNC(=O)CN)C2)c1C#N (stereo partly drawn) [Example 589, 2-amino-N-(((3S)-1-(6-((2-amino-2-oxo-1-phenylethyl)thio)-3,5-dicyano-4-ethylpyridin-2-yl)piperidin-3-yl)methyl)acetamide] | D (Category D: ≥6.5) | 316 to 1000 nM | – | – | –
9 | CCc1c(C#N)c(SCc2ccc(N(C)S(C)(=O)=O)cc2)nc(N2CCC(NC(=O)CN)CC2)c1C#N [Example 590, 2-amino-N-(1-(3,5-dicyano-4-ethyl-6-((4-(N-methylmethylsulfonamido)benzyl)thio)pyridin-2-yl)piperidin-4-yl)acetamide] | D (Category D: ≥6.5) | 1000 to 31600 nM | – | – | –
10 | CCc1c(C#N)c(SCc2ccc(N(C)S(C)(=O)=O)cc2)nc(N2CCOC(CN)C2)c1C#N (centres unmarked) [Example 591, N-(4-(((6-(2-(aminomethyl)morpholino)-3,5-dicyano-4-ethylpyridin-2-yl)thio)methyl)phenyl)-N-methylmethanesulfonamide] | D (Category D: ≥6.5) | < 316 nM | – | – | –
11 | CCc1c(C#N)c(SC(C(N)=O)c2ccccc2)nc(N2CCO[C@H](CNC(=O)CN)C2)c1C#N (stereo partly drawn) [Example 592, 2-amino-N-(((2R)-4-(6-((2-amino-2-oxo-1-phenylethyl)thio)-3,5-dicyano-4-ethylpyridin-2-yl)morpholin-2-yl)methyl)acetamide] | D (Category D: ≥6.5) | < 316 nM | > 6.5 | 158 nM | –
12 | CCc1c(C#N)c(SC(C(N)=O)c2ccc(F)cc2)nc(N2CCC[C@H](CN)C2)c1C#N (stereo partly drawn) [Example 593, 2-((6-((R)-3-(aminomethyl)piperidin-1-yl)-3,5-dicyano-4-ethylpyridin-2-yl)thio)-2-(4-fluorophenyl)acetamide] | – | < 316 nM | – | – | < 316 nM
13 | CCc1c(C#N)c(SC(C(N)=O)c2ccc(F)cc2)nc(N2CCC[C@H](CNCC(C)(C)C)C2)c1C#N (stereo partly drawn) [Example 594, 2-((3,5-dicyano-4-ethyl-6-((R)-3-((neopentylamino)methyl)piperidin-1-yl)pyridin-2-yl)thio)-2-(4-fluorophenyl)acetamide] | D (Category D: ≥6.5) | < 316 nM | – | – | –
14 | CCc1c(C#N)c(SCc2ccc(N(C)S(C)(=O)=O)cc2)nc(N2CCOC(CNC)C2)c1C#N (centres unmarked) [Example 596, N-(4-(((3,5-dicyano-4-ethyl-6-(2-((methylamino)methyl)morpholino)pyridin-2-yl)thio)methyl)phenyl)-N-methylmethanesulfonamide] | D (Category D: ≥6.5) | 316 to 1000 nM | – | – | –
15 | CCc1c(C#N)c(SCc2ccc(N(C)S(C)(=O)=O)cc2)nc(N2CCCC(CN(C)C)C2)c1C#N (centres unmarked) [Example 597, N-(4-(((3,5-dicyano-6-(3-((dimethylamino)methyl)piperidin-1-yl)-4-ethylpyridin-2-yl)thio)methyl)phenyl)-N-methylmethanesulfonamide] | D (Category D: ≥6.5) | < 316 nM | – | – | –
16 | CCc1c(C#N)c(SC(C(N)=O)c2ccccc2)nc(N2CCO[C@@H](CNC(=O)CN)C2)c1C#N (stereo partly drawn) [Example 598, 2-amino-N-(((2S)-4-(6-((2-amino-2-oxo-1-phenylethyl)thio)-3,5-dicyano-4-ethylpyridin-2-yl)morpholin-2-yl)methyl)acetamide] | D (Category D: ≥6.5) | 1000 to 31600 nM | – | – | –
17 | CCc1c(C#N)c(S[C@@H](C(N)=O)c2ccccc2)nc(N2CCO[C@H](CNC(=O)CO)C2)c1C#N [Example 599, N-(((R)-4-(6-(((R)-2-amino-2-oxo-1-phenylethyl)thio)-3,5-dicyano-4-ethylpyridin-2-yl)morpholin-2-yl)methyl)-2-hydroxyacetamide] | D (Category D: ≥6.5) | 1000 to 31600 nM | – | – | –
18 | CCc1c(C#N)c(SC(C(N)=O)c2ccccc2)nc(N(C)CC(=O)N(C)CCO)c1C#N (centres unmarked) [Example 606, 2-((6-((2-amino-2-oxo-1-phenylethyl)thio)-3,5-dicyano-4-ethylpyridin-2-yl)(methyl)amino)-N-(2-hydroxyethyl)-N-methylacetamide] | D (Category D: ≥6.5) | < 316 nM | – | – | –
19 | CCc1c(C#N)c(SC(C(N)=O)c2ccccc2)nc(N2CCC[C@H](NC)C2)c1C#N (stereo partly drawn) [Example 607, 2-((3,5-dicyano-4-ethyl-6-((S)-3-(methylamino)piperidin-1-yl)pyridin-2-yl)thio)-2-phenylacetamide] | D (Category D: ≥6.5) | < 316 nM | – | – | –
